Tm data for one compound are collected here from publication PMC12583703 (Nature Communications, 2025).

For one experiment, the target named is T1, SLC38A2 (Homo sapiens, UniProt Q96QD8).
T1 sequence (Q96QD8 1-506): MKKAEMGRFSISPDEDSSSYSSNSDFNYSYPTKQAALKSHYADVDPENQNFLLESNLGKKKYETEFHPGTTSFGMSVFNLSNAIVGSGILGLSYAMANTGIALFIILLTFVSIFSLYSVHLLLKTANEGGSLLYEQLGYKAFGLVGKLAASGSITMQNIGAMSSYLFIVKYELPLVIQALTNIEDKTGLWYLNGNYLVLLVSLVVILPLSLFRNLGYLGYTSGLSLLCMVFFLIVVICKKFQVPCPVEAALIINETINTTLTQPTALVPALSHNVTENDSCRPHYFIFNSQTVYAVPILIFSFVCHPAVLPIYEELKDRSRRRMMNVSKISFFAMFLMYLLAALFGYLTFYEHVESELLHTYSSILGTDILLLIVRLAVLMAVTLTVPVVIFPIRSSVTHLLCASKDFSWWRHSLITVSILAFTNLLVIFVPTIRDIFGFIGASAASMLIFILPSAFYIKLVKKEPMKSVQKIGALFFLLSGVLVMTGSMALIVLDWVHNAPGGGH
Nature of the experiment: thermal shift assay.

A further experiment has as its target T2, SLC1A5 (Homo sapiens, UniProt Q15758).
T2 sequence (Q15758 1-541): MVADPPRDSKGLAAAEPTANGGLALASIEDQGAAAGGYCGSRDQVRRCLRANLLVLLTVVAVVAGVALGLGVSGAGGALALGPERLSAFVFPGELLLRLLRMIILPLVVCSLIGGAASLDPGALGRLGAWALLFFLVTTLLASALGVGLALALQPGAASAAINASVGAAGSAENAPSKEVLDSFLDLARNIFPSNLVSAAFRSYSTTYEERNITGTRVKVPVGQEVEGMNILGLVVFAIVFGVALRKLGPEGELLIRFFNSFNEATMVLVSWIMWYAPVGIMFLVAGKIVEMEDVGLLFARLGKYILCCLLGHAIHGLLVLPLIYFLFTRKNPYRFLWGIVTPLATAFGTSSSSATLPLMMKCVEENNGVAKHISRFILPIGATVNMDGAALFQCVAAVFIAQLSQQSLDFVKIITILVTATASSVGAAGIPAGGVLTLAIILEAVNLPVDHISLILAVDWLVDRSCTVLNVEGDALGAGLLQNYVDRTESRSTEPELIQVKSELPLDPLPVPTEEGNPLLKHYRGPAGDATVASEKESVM
Nature of the experiment: thermal shift assay.

Turning to `Cc1cccc(COc2ccccc2CN(CC[C@H](N)C(=O)O)Cc2ccccc2OCc2cccc(C)c2)c1` [V-9302], the Tm result is “V-9302 significantly altered the Tm values of SLC1A5, SLC38A2, SLC6A19, and ANO1” at SLC38A2; “V-9302 significantly altered the Tm values of SLC1A5, SLC38A2, SLC6A19, and ANO1” at SLC1A5.
